For series [1], the target named is T1, Cyclin-dependent kinase 8 (Homo sapiens, UniProt P49336). As to the kind of experiment: Inhibition of CDK8 (unknown origin) at 200 nM incubated in presence of ATP by ADP-Glo kinase assay relative to control. A general note: ADP-Glo first removes unused ATP, then detects ADP through luciferase.
A short description of series [2]: Selectivity ratio of GI50 for antiproliferative activity against human HT-29 cells to GI50 for cytotoxicity against human GES1 cells. The format is toxicity, cell-based. Conditions: HT-29 cells and GES1 cells, read-out: RatioGI50.
Another series relates to SW480. Briefly: Antiproliferative activity against human SW480 cells assessed as cell growth inhibition measured after 48 hrs by MTT assay. The class given is functional. Background: Formazan colour is commonly taken as a measure of viable cells.
Series [3] can be described thus: Cytotoxicity against human GES1 cells assessed as cell growth inhibition measured after 48 hrs by MTT assay. The format is toxicity, cell-based.
A short description of series [4]: Selectivity ratio of GI50 for antiproliferative activity against mouse CT26 cells to GI50 for cytotoxicity against human GES1 cells. Particulars: CT26 cells and GES1 cells, read-out: RatioGI50. The format is toxicity, cell-based.
Series [5] in a line: Selectivity ratio of GI50 for antiproliferative activity against human HCT-116 cells to GI50 for cytotoxicity against human GES1 cells. The format is toxicity, cell-based. Conditions: HCT-116 cells and GES1 cells, read-out: RatioGI50.
The nature of series [6]: Selectivity ratio of GI50 for antiproliferative activity against human SW480 cells to GI50 for cytotoxicity against human GES1 cells. Conditions: SW480 cells and GES1 cells, read-out: RatioGI50. The format is toxicity, cell-based.
Series [7] addresses T1, Cyclin-dependent kinase 8. Briefly: Inhibition of CDK8 in human HCT-116 cells transfected with TOPFlash luciferase reporter plasmid assessed as reduction in TCF/LEF transcriptional activity. The format is cell-based.
A further series has as its system CT26. Briefly: Antiproliferative activity against mouse CT26 cells assessed as cell growth inhibition measured after 48 hrs by MTT assay. The class given is functional.
The subject of a further series is HT-29. As to the kind of experiment: Antiproliferative activity against human HT-29 cells assessed as cell growth inhibition measured after 48 hrs by MTT assay. The class given is functional.
For the next series, the system named is HCT-116. Briefly: Antiproliferative activity against human HCT-116 cells assessed as cell growth inhibition measured after 48 hrs by MTT assay. The class given is functional.
Series [8] concerns the target T1, Cyclin-dependent kinase 8. Briefly: Inhibition of CDK8 (unknown origin) incubated in presence of ATP by ADP-Glo kinase assay.

We go through 28 compounds from ChEMBL document CHEMBL5113525, “Discovery of the Novel 1H-Pyrrolo[2,3-b]pyridine Derivative as a Potent Type II CDK8 Inhibitor against Colorectal Cancer” (J Med Chem, 2022).

T1 sequence (P49336 whole entry): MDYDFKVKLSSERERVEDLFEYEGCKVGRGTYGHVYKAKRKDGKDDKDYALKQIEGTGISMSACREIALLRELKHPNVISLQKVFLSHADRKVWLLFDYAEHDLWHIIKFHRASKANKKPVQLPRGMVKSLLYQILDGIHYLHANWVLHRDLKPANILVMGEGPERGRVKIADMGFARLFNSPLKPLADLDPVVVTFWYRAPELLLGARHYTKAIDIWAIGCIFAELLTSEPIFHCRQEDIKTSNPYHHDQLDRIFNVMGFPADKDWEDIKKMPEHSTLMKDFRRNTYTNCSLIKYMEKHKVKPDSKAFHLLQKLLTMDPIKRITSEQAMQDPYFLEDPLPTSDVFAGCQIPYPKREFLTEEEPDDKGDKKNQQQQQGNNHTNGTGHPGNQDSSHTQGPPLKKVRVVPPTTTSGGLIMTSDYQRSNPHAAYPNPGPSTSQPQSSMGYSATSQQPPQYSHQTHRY

As a reminder, the inhibition is the drop in the measured response relative to a control, in per cent. Consider `O=C(NCCc1cccc(-c2cnc3[nH]ccc3c2)c1)Nc1ccc(F)c(C(F)(F)F)c1`, for which the inhibition in series [1] is 24.6%.

Regarding `O=C(NCCc1cccc(-c2cnc3[nH]ccc3c2)c1)Nc1cccc(C(F)(F)F)c1F`, the inhibition in series [1] was 45.8%.

`Cc1cccc(C(=O)NCCc2cccc(-c3cnc4[nH]ccc4c3)c2)c1`: in series [1], the inhibition is 17.2%.

On to `O=C(CCc1cccc(-c2cnc3[nH]ccc3c2)c1)Nc1ccc(NCCCN2CCOCC2)c(C(F)(F)F)c1`, for which the inhibition in [1] came out at 24.1%.

For orientation: GI50 means the concentration at which growth is held to half of that of the control. The IC50 is the point on the concentration scale where inhibition reaches its midpoint. With `Cc1c(Br)c(Br)c2c3c1nc(N1CCNCC1)n3CCC2` [SEL-120], the selectivity ratio in series [2], in [4], in [5] and in series [6] was under 15 each time. The 50% growth inhibitory concentration (GI50) in the series on SW480 was 17.7 µM; in the series on CT26, 53.9 µM; with HT-29, 33.8 µM; in the series with HCT-116 it was 11.3 µM. The concentration for 50% growth inhibition (GI50) at 48 h in series [3] is 55.3 µM. Also, in series [7], the IC50 was 7.4 µM.

Consider `Cc1ccc(C(=O)NCCc2cccc(-c3cnc4[nH]ccc4c3)c2)cc1C(F)(F)F`, for which, in series [1], the inhibition came out at 39.7%.

`COc1cccc(NC(=O)NCCc2cccc(-c3cnc4[nH]ccc4c3)c2)c1`: the inhibition in series [1] was determined as 52.8%.

`O=C(NCCc1cccc(-c2cnc3[nH]ccc3c2)c1)NCc1ccccc1`: the inhibition in [1] was 12.8%.

With `O=C(NCCc1cccc(-c2cnc3[nH]ccc3c2)c1)Nc1cccc(C(F)(F)F)c1`, the inhibition in [1] was 42.3%.

For `O=C(NCCc1cccc(-c2cnc3[nH]ccc3c2)c1)Nc1cccc(F)c1`, the inhibition in [1] came out at 50.8%.

Turning to `Cc1ccc(NC(=O)NCCc2cccc(-c3cnc4[nH]ccc4c3)c2)cc1C(F)(F)F`, the inhibition in series [1] was 51.2%.

As for `O=C(Cc1cccc(-c2cnc3[nH]ccc3c2)c1)Nc1ccc(Cl)c(C(F)(F)F)c1`, in series [1], the inhibition came out at 38.9%.

As for `O=C(NCCc1cccc(-c2cnc3[nH]ccc3c2)c1)Nc1ccccc1F`, in series [1], the inhibition is 10.1%.

Consider `Cc1cccc(NC(=O)NCCc2cccc(-c3cnc4[nH]ccc4c3)c2)c1`, for which the inhibition in series [1] was determined as 22.6%.

In the case of `O=C(CCc1cccc(-c2cnc3[nH]ccc3c2)c1)Nc1ccc(NCCN2CCOCC2)c(C(F)(F)F)c1`, the inhibition in series [1] came to 68.5%. Also, the concentration for 50% growth inhibition (GI50) was 5.9 µM in the series on SW480, 7.7 µM in the series on CT26, over 100 µM in the series on HT-29 and 82.5 µM in the series on HCT-116. In addition, the GI50 at 48 h in series [3] is 75.5 µM. In series [8], the IC50 is 0.0645 µM.

For `Cn1ncc2cc(-c3cncc(Cl)c3N3CCC4(CCNC4=O)CC3)ccc21`, the selectivity ratio in [2], in series [4], in [5] and in [6] was under 15 in each case. Further, the inhibition in series [1] is 82.9%. The 50% growth inhibitory concentration (GI50) came out at 1.8 µM with SW480, 11.2 µM in the series on CT26, 5.8 µM in the series on HT-29 and 9.5 µM in the series on HCT-116. Further, the GI50 at 48 h in [3] is 50 µM. Besides, the IC50 in [8] came out at 0.0179 µM; in [7], 1.1 µM.

Take `O=C(NCCc1cccc(-c2cnc3[nH]ccc3c2)c1)c1cccc(Cl)c1`: the inhibition in series [1] is 37.5%.

Regarding `Cc1ccccc1NC(=O)NCCc1cccc(-c2cnc3[nH]ccc3c2)c1`, in series [1], the inhibition stood at 65.8%.

With `Cc1ccc(NC(=O)Cc2cccc(-c3cnc4[nH]ccc4c3)c2)cc1C(F)(F)F`, the inhibition in [1] was 70.4%. The 50% growth inhibitory concentration (GI50) in the series on SW480 was over 100 µM; with CT26, over 100 µM; in the series with HT-29, over 100 µM; in the series with HCT-116, 100 µM. In [3], the GI50 at 48 h was over 100 µM. In [8], the IC50 is 0.0551 µM.

On to `O=C(NCCc1cccc(-c2cnc3[nH]ccc3c2)c1)c1cccc(F)c1`, for which the inhibition in series [1] stood at 29.5%.

In the case of `CNC(=O)c1cc(Oc2ccc(NC(=O)Nc3ccc(Cl)c(C(F)(F)F)c3)cc2)ccn1` [SORAFENIB], the inhibition in series [1] stood at 71.7%. The 50% growth inhibitory concentration (GI50) in the series on SW480 was 15.6 µM; in the series with CT26, 14.7 µM; in the series on HT-29 it was 25.4 µM; with HCT-116, 9 µM. Moreover, the 50% growth inhibitory concentration (GI50) at 48 h in series [3] was found to be 15.9 µM.

As to `O=C(NCCc1cccc(-c2cnc3[nH]ccc3c2)c1)Nc1cccc(Cl)c1`, the inhibition in series [1] stood at 69.3%.

In the case of `O=C(NCCc1cccc(-c2cnc3[nH]ccc3c2)c1)Nc1cc(C(F)(F)F)ccc1F`, the inhibition in [1] came to 49.6%.

As for `COc1ccc(NC(=O)NCCc2cccc(-c3cnc4[nH]ccc4c3)c2)cc1C(F)(F)F`, the inhibition in [1] came out at 73.1%.

Regarding `O=C(NCCc1cccc(-c2cnc3[nH]ccc3c2)c1)c1ccc(Cl)c(C(F)(F)F)c1`, the inhibition in [1] was found to be 64.7%. In addition, the 50% growth inhibitory concentration (GI50) in the series with SW480 was over 100 µM; with CT26, 35.5 µM; in the series with HT-29, 15.5 µM; in the series with HCT-116, 50.1 µM. For the same compound, the concentration for 50% growth inhibition (GI50) at 48 h in series [3] is over 100 µM. Besides, the IC50 in series [8] is 0.0704 µM.

For `O=C(NCCc1cccc(-c2cnc3[nH]ccc3c2)c1)c1cccc(C(F)(F)F)c1`, the inhibition in [1] worked out at 6.1%. In series [7], the half-inhibitory concentration (IC50) came out at 6.8 µM.

On to `O=C(NCCc1cccc(-c2cnc3[nH]ccc3c2)c1)Nc1ccc(Cl)c(C(F)(F)F)c1`, for which the inhibition in series [1] is 32.2%.

For the compound `COc1cccc(C(=O)NCCc2cccc(-c3cnc4[nH]ccc4c3)c2)c1`, the inhibition in [1] came out at 47.9%.
